Data reported in patent US6559135B2, “Per-(3-6-anhydro)cyclodextrins derivatives, preparation and use thereof for separating ions” (Commissariat a l'Energie Atomique, priority 2000, dated 2003).

Columns and labels:
Format in all cases: binding
[1] = Complexation of Dy3+ followed by proton NMR; conditions: 1 mmol/l derivative, 4 mmol/l cation, aqueous solution
Experimental: (§1) Each complex is prepared by adding 4 mmol/l of the tested cation to 500 μl of an aqueous solution containing 1 mmol/l of the product from Example 1. The following cations were tested: Lu^3+, La^3+, Dy^3+, Eu^3+ and Co^2+.
(§2) The resulting complexes were then characterised by proton nuclear magnetic resonance spectrometry.

[2] = Complexation of Eu3+ followed by proton NMR; conditions: 1 mmol/l derivative, 4 mmol/l cation, aqueous solution
Experimental: as §1, §2

[3] = Complexation of Co2+ followed by proton NMR; conditions: 1 mmol/l derivative, 4 mmol/l cation, aqueous solution
Experimental: as §1, §2

[4] = Complexation of La3+ followed by proton NMR; conditions: 1 mmol/l derivative, 4 mmol/l cation, aqueous solution
Experimental: as §1, §2

[5] = Complexation of Lu3+ followed by proton NMR; conditions: 1 mmol/l derivative, 4 mmol/l cation, aqueous solution
Experimental: as §1, §2

[6] = Competition with EDTA in complexing Dy3+, proton NMR; conditions: 1 mmol/l derivative, 4 mmol/l cation and EDTA (large excess of EDTA), aqueous solution
Experimental: (§3) In this example, experiments were carried out to compare the derivative from Example 1 and ethylene diamine tetra acetate (EDTA) in complexing Dy^3+, Eu^3+ and Co^2+ ions, in order to get an idea of the force of the complexes prepared in Example 2.
(§4) With this in mind, 4 mmol/l of the tested cation and EDTA were added to 50 μl of an aqueous solution containing 1 mmol/l of the derivative from Example 1. The resulting products were than characterised by proton NMR spectrometry.

[7] = Competition with EDTA in complexing Eu3+, proton NMR; conditions: 1 mmol/l derivative, 4 mmol/l cation and EDTA (large excess of EDTA), aqueous solution
Experimental: as §3, §4

[8] = Competition with EDTA in complexing Co2+, proton NMR; conditions: 1 mmol/l derivative, 4 mmol/l cation and EDTA (large excess of EDTA), aqueous solution
Experimental: as §3, §4

[9] = Complexation of physiological cation Na+, proton NMR; conditions: same procedure as Example 2: 1 mmol/l derivative, 4 mmol/l cation
Experimental: as §1
(§5) In this example, the complexation properties of the derivative from Example 1 were tested vis à vis physiological cations: calcium, sodium and potassium, all of which are required in the development of living organisms.
(§6) The same procedure was used as given in Example 2, and the resulting products were characterised by proton NMR spectrometry.

[10] = Complexation of physiological cation K+, proton NMR; conditions: same procedure as Example 2: 1 mmol/l derivative, 4 mmol/l cation
Experimental: as §1, §5, §6

[11] = Complexation of physiological cation Ca2+, proton NMR; conditions: same procedure as Example 2: 1 mmol/l derivative, 4 mmol/l cation
Experimental: as §1, §5, §6

Q: For “Hexakis-(3,6-anhydro-2-O-carboxymethyl)-cyclomaltohexaose [Example 1]”, which “interaction with Dy^3+ (change of proton NMR spectrum)” value [1] is on record?
A: very strong interaction

Q: And the “interaction with Eu^3+ (change of proton NMR spectrum)” value [2]?
A: very strong interaction

Q: And the “interaction with Co^2+ (change of proton NMR spectrum)” value [3]?
A: very strong interaction

Q: And the “interaction with La^3+ (change of proton NMR spectrum)” value [4]?
A: H6 and H6′ protons located on the anhydro bridge can still be observed

Q: And the “interaction with Lu^3+ (change of proton NMR spectrum)” value [5]?
A: several stoichiometrically different complexes co-exist in solution

Q: And the “strength of Dy^3+ complex compared to EDTA” value [6]?
A: complexes the cations more strongly than EDTA

Q: What about the “strength of Eu^3+ complex compared to EDTA” value [7] of the same substance?
A: complexes the cations more strongly than EDTA

Q: And the “strength of Co^2+ complex compared to EDTA” value [8]?
A: complexes the cations more strongly than EDTA

Q: What about the “effect of Na^+ on proton NMR peaks of the derivative (complexation)” value [9] of the same substance?
A: hardly affected

Q: What about the “effect of K^+ on proton NMR peaks of the derivative (complexation)” value [10] of the same substance?
A: hardly affected

Q: And the “effect of Ca^2+ on proton NMR peaks of the derivative (complexation)” value [11]?
A: hardly affected
